Measured values taken from patent US5393729A, “3-aryl-pyrone derivatives” (Bayer Aktiengesellschaft, priority 1992, dated 1995).
Where two headings read alike, the source gives them in different places.

Experiments:
Digitaria = assay: Pre-emergence test, Digitaria; assay type: in vivo; details: 504 h, after three weeks, 0%=no action, 100%=total destruction, read-out: % Activity (damage to the plants)
Procedure: (§1) Solvent: 5 parts by weight of acetone
(§2) Emulsifier: 1 part by weight of alkylaryl polyglycol ether
(§3) To produce a suitable preparation of active compound, 1 part by weight of active compound is mixed with the stated amount of solvent, the stated amount of emulsifier is added and the concentrate is diluted with water to the desired concentration.
(§4) Seeds of the test plants are sown in normal soil and, after 24 hours, watered with the preparation of the active compound. It is expedient to keep constant the amount of water per unit area. The concentration of the active compound in the preparation is of no importance, only the amount of active compound applied per unit area being decisive. After three weeks, the degree of damage to the plants is rated in % damage in comparison to the development of the untreated control. The figures denote:
(§5) 0%=no action (like untreated control)
(§6) In this test, the following results were obtained at an exemplary application rate of 500 g/ha, the active compounds being tolerated well to very well by soya beans: […]

Echinochloa = assay: Pre-emergence test, Echinochloa; assay type: in vivo; details: 504 h, after three weeks, 0%=no action, 100%=total destruction, read-out: % Activity (damage to the plants)
Procedure: as §1, §2, §3, §4, §5, §6

Setaria = assay: Pre-emergence test, Setaria; assay type: in vivo; details: 504 h, after three weeks, 0%=no action, 100%=total destruction, read-out: % Activity (damage to the plants)
Procedure: as §1, §2, §3, §4, §5, §6

Panicum = assay: Pre-emergence test, Panicum; assay type: in vivo; details: 504 h, after three weeks, 0%=no action, 100%=total destruction, read-out: % Activity (damage to the plants)
Procedure: as §1, §2, §3, §4, §5, §6

[1] = system: larvae of the green rice cicada (Nephotettix cincticeps); assay: whole plant or invertebrate; assay type: in vivo; details: 144 h, read-out: destruction of cicadas
Procedure: (§7) Solvent: 7 parts by weight of dimethylformamide
as §2
(§8) To produce a suitable preparation of active compound, 1 part by weight of active compound is mixed with the stated amount of solvent and the stated amount of emulsifier, and the concentrate is diluted with water to the desired concentration.
Rice seedlings (Oryza satira) are treated by being dipped into the preparation of active compound of the desired concentration and are infested with larvae of the green rice cicada (Nephotettix cincticeps) while the seedlings are still moist.
After the specified period of time, the destruction in % is determined. 100% means that all the cicadas have been killed; 0% means that none of the cicadas have been killed.

Trichinella spiralis = Trichinella spiralis in vitro; details: 120 h, 5 days at 19° C., read-out: destruction (very good action)
Procedure: Trichinella spiralis in vitro
Trichina larvae are isolated from the muscles of mice and washed with 0.9% NaCl supplemented with 20 μg/ml sisomycin and 2 μg/ml of clotrimazole. The actual incubation for approximately 20 trichinas per measurement was effected in 2 ml of a solution consisting of 10 g Bacto Casitone, 5 g of yeast (yeast extract), 2.5 g of glucose, 0.4 g of KH2 PO4, 0.4 g of K2 HPO4 per 500 ml, pH 7.2, containing 10 μg/ml of sisomycin and […] of clotrimazole. 10 mg of the substance to be tested are dissolved in 0.5 ml of DMSO, and such an amount is added to the incubation medium that the end concentrations are 100, 10 and 1 μg/ml. After incubation for 5 days at 19° C., the test is evaluated. The following key is used for the evaluation: 0=no action, the number of live larvae and worms is lower than in the case of the control; 2=good action, dead trichinas can be found; 3=very good action, all trichinas are dead.

[2] = system: mustard beetle larvae (Phaedon cochleariae); assay: Phaedon larvae test; assay type: in vivo; details: 168 h, after 7 days, active compound concentration 0.1%, cabbage leaves dipped, read-out: destruction of beetle larvae
Procedure: as §7, §2, §8
After the specified periods of time, the destruction in % is determined. 100% means that all the beetle larvae have been killed; 0% means that none of the beetle larvae have been killed.

[3] = system: caterpillars of the diamond-back moth (Plutella maculipennis); assay: whole plant or invertebrate; assay type: in vivo; details: in Brassica oleracea, 168 h, read-out: destruction of caterpillars
Procedure: as §7, §2, §8
Cabbage leaves (Brassica oleracea) are treated by being dipped into the preparation of active compound of the desired concentration and are infested with caterpillars of the diamond-back moth (Plutella maculipennis) while the leaves are still moist.
After the specified periods of time, the destruction in % is determined. 100% means that all the caterpillars have been killed; 0% means that none of the caterpillars have been killed.

[4] = system: common spider mite or greenhouse red spider mite (Tetranychus urticae); assay: Tetranychus test (OP resistant); assay type: in vivo; details: 168 h, read-out: destruction of spider mites
Procedure: Tetranychus test (OP resistant)
as §7, §2, §8
Bean plants (Phaseolus vulgaris) which are heavily infested with all development stages of the common spider mite or greenhouse red spider mite (Tetranychus urticae) are treated by being dipped into the preparation of active compound of the desired concentration.
After the specified period of time, the destruction in % is determined. 100% means that all the spider mites have been killed; 0% means that none of the spider mites have been killed.

[5] = system: black bean aphid (Aphis fabae); assay: whole plant or invertebrate; assay type: in vivo; details: active compound concentration 0.1%, bean plants watered, systemic action, read-out: destruction of aphids
Procedure: Aphis test (systemic action)
as §7, §2, §8
Bean plants (Vicia faba) which are heavily infested with the black bean aphid (Aphis fabae) are each watered with 20 ml of the preparation of the active compound of the desired concentration in such a way that the preparation of active compound penetrates the soil without wetting the shoot. The active compound is taken up by the roots and translocated to the shoot.
After the specified period of time, the destruction in % is determined. 100% means that all the aphids have been killed; 0% means that none of the aphids have been killed.

[6] = system: Lucilia cuprina resistant larvae; assay: Test with Lucilia cuprina resistant larvae; assay type: in vivo; details: after 24 hours, read-out: degree of destruction
Procedure: Test with Lucilia cuprina resistant larvae
Emulsifier: 35 parts by weight of ethylene glycolmonomethyl ether 35 parts by weight of nonylphenol polyglycol ether
To produce a suitable preparation of active compound, three parts by weight of active compound are mixed with seven parts by weight of the abovementioned mixture and the concentrate thus obtained is diluted with water to the particular desired concentration.
About 20 Lucilia cuprina res. larvae are introduced into a test tube which contains approx. 1 cm^3 of horse meat and 0.5 ml of the preparation of active compound. After 24 hours, the degree of destruction is determined.

[7] = after 7 days, active compound concentration 0.01%, OP resistant, bean plants dipped

Row | Structure (SMILES) | activity at 500 g/ha (Digitaria) [%] | activity at 500 g/ha (Echinochloa) [%] | activity at 500 g/ha (Setaria) [%] | activity at 500 g/ha (Panicum) [%] | mortality at 0.1 % [1] [%] | also measured
1 | Cc1cc(C)c(-c2c(O)cc(C)oc2=O)c(C)c1 [Example 34] | 90 to 100 | 70 to 100 | 70 to 100 | 95 to 100 | 100 | –
2 | Cc1cc(C)c(-c2c(O)c(C(=O)c3ccccc3)c(C)oc2=O)c(C)c1 [Example 26] | – | – | – | – | – | killing at 100 ppm (Trichinella spiralis): 100%
3 | Cc1cc(C)c(-c2c(O)cc(-c3ccccc3Cl)oc2=O)c(C)c1 [Example 47] | – | – | – | – | – | mortality at 0.1 % [2]: 100%
4 | Cc1cc(C)c(-c2c(O)c(C(=O)N3CCOCC3)c(C)oc2=O)c(C)c1 [Example 18] | – | – | – | – | – | killing at 100 ppm (Trichinella spiralis): 100%
5 | Cc1cc(C)c(-c2c(O)cc(-c3cccnc3)oc2=O)c(C)c1 [Example 63] | 90 to 100 | 70 to 100 | 70 to 100 | 95 to 100 | – | –
6 | CCOC(=O)Oc1c(C)c(C)oc(=O)c1-c1c(C)cc(C)cc1C [Example 88] | 90 to 100 | – | 70 to 100 | 95 to 100 | – | mortality at 0.1 % [3]: 100%; mortality at 0.01 % [4, 7]: 100%
7 | Cc1cc(C)c(-c2c(O)c3c(oc2=O)CCC3)c(C)c1 [Example 69] | 90 to 100 | 70 to 100 | 70 to 100 | 95 to 100 | 100 | –
8 | CCOC(=O)c1c(-c2ccccc2F)oc(=O)c(-c2c(C)cc(C)cc2C)c1O [Example 14] | – | – | – | – | – | killing at 100 ppm (Trichinella spiralis): 100%
9 | Cc1cc(C)c(-c2c(O)c(C#N)c(-c3ccccc3Cl)oc2=O)c(C)c1 [Example 13] | – | – | – | – | – | killing at 100 ppm (Trichinella spiralis): 100%
10 | Cc1cc(C)c(-c2c(O)c3c(oc2=O)CCCC3)c(C)c1 [Example 68] | 90 to 100 | 70 to 100 | 70 to 100 | 95 to 100 | 100 | –
11 | Cc1cc(C)c(-c2c(O)c(C)c(C)oc2=O)c(C)c1 [Example 32] | 90 to 100 | 70 to 100 | 70 to 100 | 95 to 100 | 100 | mortality at 0.1 % [5]: 100%; mortality at 1000 ppm [6]: 100%
12 | Cc1cc(C)c(-c2c(O)cc(-c3ccccc3F)oc2=O)c(C)c1 [Example 51] | – | – | – | – | 100 | –
13 | Cc1cc(C)c(-c2c(O)cc(-c3cc(C)sc3C)oc2=O)c(C)c1 [Example 62] | 90 to 100 | – | – | 95 to 100 | 100 | –
14 | CCCc1c(CC)oc(=O)c(-c2c(C)cc(C)cc2C)c1O [Example 37] | – | 70 to 100 | 70 to 100 | 95 to 100 | 100 | killing at 100 ppm (Trichinella spiralis): 100%
15 | Cc1cc(C)c(-c2c(OC(=O)C(C)C)cc(C(C)(C)C)oc2=O)c(C)c1 [Example 85] | – | – | – | – | 100 | mortality at 0.01 % [4, 7]: 100%
16 | CCOC(=O)c1c(-c2ccc([N+](=O)[O-])cc2)oc(=O)c(-c2c(C)cc(C)cc2C)c1O [Example 15] | – | – | – | – | – | killing at 100 ppm (Trichinella spiralis): 100%

Row | Structure (SMILES) | activity at 500 g/ha (Digitaria) [%] | activity at 500 g/ha (Echinochloa) [%] | activity at 500 g/ha (Setaria) [%] | activity at 500 g/ha (Panicum) [%] | mortality at 0.1 % [1] [%] | also measured
17 | CC(=O)Oc1c(C)c(C)oc(=O)c1-c1c(C)cc(C)cc1C [Example 81] | 90 to 100 | 70 to 100 | 70 to 100 | 95 to 100 | – | mortality at 0.1 % [3]: 100%
18 | Cc1cc(C)c(-c2c(O)cc(-c3ccc(Cl)cc3)oc2=O)c(C)c1 [Example 53] | 90 to 100 | 70 to 100 | 70 to 100 | 95 to 100 | – | mortality at 0.1 % [3]: 100%
19 | Cc1cc(C)c(-c2c(O)cc(C(C)(C)C)oc2=O)c(C)c1 [Example 31] | 90 to 100 | 70 to 100 | 70 to 100 | 95 to 100 | 100 | mortality at 0.01 % [4, 7]: 100%
20 | Cc1cc(C)c(-c2c(O)cc(-c3cccs3)oc2=O)c(C)c1 [Example 58] | – | – | – | – | 100 | –
21 | Cc1cc(C)c(-c2c(O)cc(-c3ccccc3)oc2=O)c(C)c1 [Example 46] | 90 to 100 | 70 to 100 | – | 95 to 100 | – | mortality at 0.1 % [2]: 100%; mortality at 0.1 % [3]: 100%; mortality at 1000 ppm [6]: 100%
22 | CCc1c(C)oc(=O)c(-c2c(C)cc(C)cc2C)c1O [Example 35] | 90 to 100 | – | 70 to 100 | 95 to 100 | 100 | –
23 | Cc1cc(C)c(-c2c(O)c(C(C)C)c(C)oc2=O)c(C)c1 [Example 33] | 90 to 100 | 70 to 100 | 70 to 100 | 95 to 100 | – | –
24 | Cc1cc(C)c(-c2c(O)cc(-c3ccc(Cl)s3)oc2=O)c(C)c1 [Example 61] | – | – | – | – | – | mortality at 0.1 % [3]: 100%
25 | Cc1cc(C)c(-c2c(O)cc(-c3c(C)cc(C)nc3C)oc2=O)c(C)c1 [Example 65] | – | – | – | – | 100 | mortality at 0.1 % [2]: 100%
26 | Cc1cc(C)c(-c2c(O)cc(-c3ccc(F)cc3)oc2=O)c(C)c1 [Example 52] | 90 to 100 | 70 to 100 | 70 to 100 | 95 to 100 | 100 | mortality at 0.1 % [3]: 100%
27 | CC(=O)Oc1cc(C(C)(C)C)oc(=O)c1-c1c(C)cc(C)cc1C [Example 84] | 90 to 100 | 70 to 100 | 70 to 100 | 95 to 100 | 100 | mortality at 0.01 % [4, 7]: 100%
28 | Cc1cc(C)c(-c2c(O)cc(-c3ccco3)oc2=O)c(C)c1 [Example 56] | – | 70 to 100 | 70 to 100 | 95 to 100 | 100 | killing at 100 ppm (Trichinella spiralis): 100%
29 | Cc1cc(C)c(-c2c(O)c3c(oc2=O)CCOC3)c(C)c1 [Example 71] | – | – | – | – | 100 | –
30 | CCOC(=O)Oc1cc(C(C)(C)C)oc(=O)c1-c1c(C)cc(C)cc1C [Example 3, 4-ethoxycarbonyloxy-6-tert.-butyl-3-(2,4,6-trimethylphenyl)pyrone] | – | – | – | – | 100 | mortality at 0.01 % [4]: 100%
31 | Cc1cc(C)c(-c2c(O)cc(-c3cc(Cl)c(Cl)s3)oc2=O)c(C)c1 [Example 60] | 90 to 100 | – | 70 to 100 | 95 to 100 | – | –
